Assay results as given in patent US6506766B1 (Abbott Laboratories, priority 1998, dated 2003).
Like-named read-outs stand apart in the source and are kept apart here.

What was measured:
[1] = molecular target: T1, human glucocorticoid receptor-α [GRX] isoform (Homo sapiens, UniProt P04150); assay: Radioligand binding with human glucocorticoid receptor cytosol ([3H]-dexamethasone competition)
T1 construct: host or cells: insect SF21 cells (baculovirus)
T1 sequence (P04150 1-777): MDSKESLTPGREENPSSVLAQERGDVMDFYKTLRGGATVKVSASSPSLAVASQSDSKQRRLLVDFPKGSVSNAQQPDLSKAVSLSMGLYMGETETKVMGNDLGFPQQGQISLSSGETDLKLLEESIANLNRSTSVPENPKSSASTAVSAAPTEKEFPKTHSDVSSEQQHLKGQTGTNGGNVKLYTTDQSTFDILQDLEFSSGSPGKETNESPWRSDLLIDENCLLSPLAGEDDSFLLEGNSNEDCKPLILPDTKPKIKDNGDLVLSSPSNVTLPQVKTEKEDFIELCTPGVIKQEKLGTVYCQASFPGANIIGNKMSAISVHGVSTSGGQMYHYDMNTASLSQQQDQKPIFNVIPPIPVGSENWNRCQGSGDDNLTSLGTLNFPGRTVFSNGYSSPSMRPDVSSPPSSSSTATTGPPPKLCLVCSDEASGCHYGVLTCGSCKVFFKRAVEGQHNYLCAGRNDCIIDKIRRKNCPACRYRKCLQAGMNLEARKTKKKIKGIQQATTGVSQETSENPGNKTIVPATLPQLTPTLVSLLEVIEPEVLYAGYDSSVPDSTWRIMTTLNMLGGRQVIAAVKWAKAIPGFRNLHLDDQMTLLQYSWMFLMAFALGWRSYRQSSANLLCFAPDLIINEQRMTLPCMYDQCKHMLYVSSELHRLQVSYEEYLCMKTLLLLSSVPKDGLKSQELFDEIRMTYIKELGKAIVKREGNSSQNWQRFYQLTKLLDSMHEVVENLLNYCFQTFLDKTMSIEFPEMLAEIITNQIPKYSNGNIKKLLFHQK

[2] = molecular target: T2, human progesterone receptor-A [PRA] isoform (Homo sapiens, UniProt P06401); assay: Radioligand binding with human progesterone receptor cytosol ([3H]-progesterone competition); conditions: read-out: Ki (nM) PR
T2 construct: host or cells: insect SF21 cells (baculovirus)
T2 sequence (P06401 1-769 isoform P06401-2): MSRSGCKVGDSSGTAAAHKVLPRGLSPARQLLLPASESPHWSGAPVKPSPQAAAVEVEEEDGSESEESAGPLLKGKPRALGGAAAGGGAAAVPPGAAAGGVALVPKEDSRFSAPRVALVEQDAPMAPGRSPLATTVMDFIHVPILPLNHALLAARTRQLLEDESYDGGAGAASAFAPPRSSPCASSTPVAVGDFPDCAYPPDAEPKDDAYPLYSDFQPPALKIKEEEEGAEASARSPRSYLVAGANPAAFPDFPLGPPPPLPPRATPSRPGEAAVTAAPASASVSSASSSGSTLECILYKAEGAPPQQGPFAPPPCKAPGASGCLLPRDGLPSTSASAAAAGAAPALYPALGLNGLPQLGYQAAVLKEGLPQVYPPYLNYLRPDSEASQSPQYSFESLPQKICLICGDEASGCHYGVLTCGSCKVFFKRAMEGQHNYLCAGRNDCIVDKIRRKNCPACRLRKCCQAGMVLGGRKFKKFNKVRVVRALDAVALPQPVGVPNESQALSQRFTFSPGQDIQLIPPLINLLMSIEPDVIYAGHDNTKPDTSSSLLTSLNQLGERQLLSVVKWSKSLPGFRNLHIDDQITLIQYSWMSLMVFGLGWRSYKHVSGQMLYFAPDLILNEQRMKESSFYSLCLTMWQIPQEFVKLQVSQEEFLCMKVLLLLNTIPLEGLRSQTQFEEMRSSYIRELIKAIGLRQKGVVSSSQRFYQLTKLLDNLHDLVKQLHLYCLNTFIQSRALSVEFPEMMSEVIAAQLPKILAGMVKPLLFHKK

[3] = PRA cytosol expressed in insect SF21 cells, [3H]Prog ~0.8 nM, 4° C. overnight, Ki by Cheng-Prusoff, KL ~4.5 nM
[4] = GRX cytosol expressed in insect SF21 cells, [3H]-Dex ~0.9 nM, 4° C. overnight, Ki by Cheng-Prusoff, KL ~[…], read-out: Ki (nM) GR

Row | Ki [2, 3] | Ki [1, 4] | Compound | other results
1 |  |  | 2,5-Dihydro-9-hydroxy-10-methoxy-5-propyl-2,2,4-trimethyl-1H-[1]benzopyrano[3,4-f]quinoline [Example 245] | Ki ([1]; read-out: Ki (nM) GR): 0.95 nM; Ki [2]: 119 nM
2 |  |  | 2,5-Dihydro-10-methoxy-5-(3,3-dimethyl-6-cyclohexenyl)-2,2,4-trimethyl-1H-[1]benzopyrano[3,4-f]quinoline [Example 146] | Ki ([1]; read-out: Ki (nM) GR): 8.3 nM; Ki [2]: 8300 nM
3 |  |  | 5-Butyl-2,5-dihydro-9-hydroxy-10-methoxy-2,2,4-trimethyl-1H-[1]benzopyrano[3,4-f]quinoline [Example 251] | Ki ([1]; read-out: Ki (nM) GR): 0.87 nM; Ki [2]: 163 nM
4 |  |  | 9,10-Dimethoxy-5-[3-cyclohexenyl]-methoxy-2,2,4-trimethyl-2,5-dihydro-1H-[1]benzopyrano[3,4-f]quinoline [Example 291] | Ki ([1]; read-out: Ki (nM) GR): 8.1 nM; Ki [2]: 592 nM
5 | 4870 nM | 3.6 nM | COc1cccc2c1-c1ccc3c(c1C(C1C=CCC(C)(C)C1)O2)C(C)=CC(C)(C)N3 (mixture of isomers) [Example 133] | 
6 | ≥ 10000 nM |  | C=C1CCCCC1C1Oc2cccc(OC)c2-c2ccc3c(c21)C(C)=CC(C)(C)N3 (mixture of isomers) [Example 141, 2,5-Dihydro-10-methoxy-5-(1-methylene-2-cyclohexyl)-2,2,4-trimethyl-1H-[1]benzopyrano[3,4-f]quinoline] | Ki ([1]; Ki (nM) GR): 10 nM
7 | ≥ 10000 nM | 270 nM | COc1cccc2c1-c1ccc3c(c1C(CC(O)CO)O2)C(C)=CC(C)(C)N3 (mixture of isomers) [Example 174, 2,5-Dihydro-10-methoxy-5-(1,2-dihydroxy-3-propyl)-2,2,4-trimethyl-1H-[1]benzopyrano[3,4-f]quinoline] | 
8 | 36.2 nM | 0.89 nM | COc1c(O)ccc2c1-c1ccc3c(c1C(C1C=CCCC1)O2)C(C)=CC(C)(C)N3 (racemic) [Example 236] | 
9 |  | 6.6 nM | CCCC1Oc2cccc(OC)c2-c2ccc3c(c21)C(C)=CC(C)(C)N3 (centres unmarked) [Example 54, 2,5-Dihydro-10-methoxy-2,2,4-trimethyl-5-propyl-1H-[1]benzopyrano[3,4-f]quinoline] | 
10 |  | 2.7 nM | C#CCC1Oc2cccc(OC)c2-c2ccc3c(c21)C(C)=CC(C)(C)N3 (centres unmarked) [Example 66, 2,5-Dihydro-10-methoxy-2,2,4-trimethyl-5-(2-propynyl)-1H-[1]benzopyrano[3,4-f]quinoline] | 
11 |  | 4190 nM | COc1cccc2c1-c1ccc3c(c1C(CN)O2)C(C)=CC(C)(C)N3 (centres unmarked) [Example 206A, 2,5-Dihydro-10-methoxy-5-(aminomethyl)-2,2,4-trimethyl-1H-[1]benzopyrano[3,4-f]quinoline] | 
12 |  | 767 nM | COc1c(O)ccc2c1-c1ccc3c(c1[C@@H](C1CCCC1)O2)C(C)=CC(C)(C)N3 [Example 265, (+)(R)5-Cyclopentyl-2,5-dihydro-9-hydroxy-10-methoxy-2,2,4-trimethyl-1H-[1]benzopyrano[3,4-f]quinoline] | 
13 | 3050 nM |  | C=CC1Oc2cccc(OC)c2-c2ccc3c(c21)C(C)=CC(C)(C)N3 (centres unmarked) [Example 320, 2,5-Dihydro-10-methoxy-5-ethenyl-2,2,4-trimethyl-1H-[1]benzopyrano[3,4-f]quinoline] | 
14 |  | 24 nM | COc1cccc2c1-c1ccc3c(c1C(C=C(C)C)O2)C(C)=CC(C)(C)N3 (centres unmarked) [Example 324, 2,5-Dihydro-10-methoxy-5-(2-methylpropenyl)-2,2,4-trimethyl-1H-[1]benzopyrano[3,4-f]quinoline] | 
15 | 192 nM |  | C=CCC1Oc2cccc(CO)c2-c2ccc3c(c21)C(C)=CC(C)(C)N3 (centres unmarked) [Example 329, 2,5-Dihydro-10-(2-hydroxymethyl)-5-(3-propenyl)-2,2,4-trimethyl-1H-[1]benzopyrano[3,4-f]quinoline] | 
16 | 53 nM |  | C=CCC1Oc2cccc(C=O)c2-c2ccc3c(c21)C(C)=CC(C)(C)N3 (centres unmarked) [Example 330, 2,5-Dihydro-10-formyl-5-(3-propenyl)-2,2,4-trimethyl-1H-[1]benzopyrano[3,4-f]quinoline] | 
17 | 98 nM |  | COc1c(O)ccc2c1-c1ccc3c(c1/C(=C/c1ccccc1)O2)C(C)=CC(C)(C)N3 [Example 365, Z-5-(Benzylidenyl)-9-hydroxy-10-methoxy-2,2,4-trimethyl-1H-2,5-dihydro] | 
18 | 7.6 nM |  | CC1=CC(C)(C)Nc2ccc3c(c21)/C(=C/c1cccc(F)c1)Oc1ccc(O)c(Cl)c1-3 [Example 367, Z-5-(3-Fluorobenzylidenyl)-10-chloro-9-hydroxy-2,2,4-trimethyl-2,5-dihydro-1H-[1]benzopyrano[3,4-f]quinoline] | 
19 | 150 nM |  | COc1c(O)ccc2c1-c1ccc3c(c1C(Cc1cc(F)cc(F)c1)O2)C(C)=CC(C)(C)N3 (centres unmarked) [Example 382, 2,5-Dihydro-9-hydroxy-10-methoxy-2,2,4-trimethyl-5-(3-5-difluorophenylmethyl)-1H-[1]benzopyrano[3,4-f]quinoline] | 
20 | 520 nM |  | COc1cccc2c1-c1ccc3c(c1[C@H]([C@@H]1C=CCC1)O2)C(C)=CC(C)(C)N3 [Example 390, (−)(5S,3′S)2,5-Dihydro-10-methoxy-2,2,4-trimethyl-5-(cyclopenten-3-yl)-1H-[1]benzopyrano[3,4-f]quinoline] | 
21 |  |  | COc1cccc2c1-c1ccc3c(c1[C@H]([C@@H]1C=CCCC1)O2)C(C)=CC(C)(C)N3 [Example 391, (−)(5S,3′S)2,5-Dihydro-10-methoxy-2,2,4-trimethyl-5-(cyclohexen-3-yl)-1H-[1]benzopyrano[3,4-f]quinoline] | Ki ([1]; Ki (nM) GR, GRX cytosol expressed in insect SF21 cells, [3H]-Dex ~0.9 nM, 4° C. overnight, Ki by Cheng-Prusoff, KL ~[…]): 1.7 nM
22 | 589 nM |  | COc1cccc2c1-c1ccc3c(c1[C@H]([C@H]1C=CCC1)O2)C(C)=CC(C)(C)N3 [Example 393, (−)(5S,3′R)2,5-Dihydro-10-methoxy-2,2,4-trimethyl-5-(cyclopenten-3-yl)-1H-[1]benzopyrano[3,4-f]quinoline] | 
23 | 22.8 nM |  | C=CCC1Oc2c(Br)cc(O)c(Cl)c2-c2ccc3c(c21)C(C)=CC(C)(C)N3 (centres unmarked) [Example 397, 2,5-Dihydro-7-bromo-9-hydroxy-10-chloro-2,2,4-trimethyl-5-allyl-1H-[1]benzopyrano[3,4-f]quinoline] | 
24 |  | 0.68 nM | CCCC1Oc2ccc(O)c(Cl)c2-c2ccc3c(c21)C(C)=CC(C)(C)N3 (centres unmarked) [Example 411, 2,5-Dihydro-9-hydroxy-10-chloro-2,2,4-trimethyl-5-propyl-1H-[1]benzopyrano[3,4-f]quinoline] | 
25 |  | 33 nM | C=CCC1Oc2cccc(C=NO)c2-c2ccc3c(c21)C(C)=CC(C)(C)N3 (centres unmarked) [Example 446, 10-Carbaldehyde Oxime-5-(2-propenyl)-2,5-dihydro-2,2,4-trimethyl-1H-[1]benzopyrano[3,4-f]quinoline] | 
26 |  | 7100 nM | C=CCC1Oc2cccc(OCc3ccccc3)c2-c2ccc3c(c21)C(C)=CC(C)(C)N3 (centres unmarked) [Example 447, 10-Benzyloxy-5-(2-propenyl)-2,5-dihydro-2,2,4-trimethyl-1H-[1]benzopyrano[3,4-f]quinoline] | 

Row | Compound | Ki [2, 3] | Ki [1, 4] | other results
27 | 2,5-Dihydro-9-hydroxy-10-methoxy-2,2,4-trimethyl-5-((2-fluorophenyl)methyl)-1H-[1]benzopyrano[3,4-f]quinoline [Example 385] | 170 nM |  | Ki ([1]; read-out: Ki (nM) GR): 0.9 nM
28 | COc1cccc2c1-c1ccc3c(c1C(C1C=CCCC1)O2)C(C)=CC(C)(C)N3 (mixture of isomers) [Example 137] | 2410 nM |  | Ki ([1]; Ki (nM) GR): 5.5 nM
